Results from patent publication US20220213156A1, “Peptides for use in therapy or prophylaxis of Herpesviridae-infections” (priority 2019, published 2022).
Like-named read-outs stand apart in the source and are kept apart here. Residues, ends and D or L forms follow the SMILES beside them.

Columns and labels:
zebrafish embryos = assay type: in vivo; conditions: exposure from 6-7 hpf
Procedure: To test HD5 (1-9) (SEQ ID No. 1) for toxicity and to assess its effect on embryonic development in zebrafish, embryos obtained from natural crosses of wildtype TE fish were used. After mating, embryos were incubated at 28° C. until 6 h postfertilization (hpf). Triplicates of five embryos each were then placed in wells of a 96-well plate containing 200 μl of different peptide concentrations. HD5 (1-9) (SEQ ID No. 1) dissolved in PBS was diluted in normal embryo medium (250 mg/L Instant Ocean salt, 1 mg/L methylene blue in reverse osmosis water adjusted to pH 7 with NaHCO3) (Muller et al., “Differential diffusivity of Nodal and Lefty underlies a reaction-diffusion patterning system”; Science 336 (6082):721-724, 2012). The concentrations tested were 25 μM, 75 μM, 125 μM and 250 μM, and the concentration of PBS solvent was adjusted for each control group. At peptide concentrations of 75 μM and above we observed granulae in some wells, which could represent peptide accumulations. As a control, embryos were additionally incubated in 25 μg/ml cycloheximide (C4859, Sigma-Aldrich). After 13 hpf, 24 hpf and 48 hpf a microscopic phenotype analysis was performed. For each time point embryos were automatically imaged using an ACQUIFER Imaging Machine. For the phenotype analysis at 48 hpf, the larvae were manually dechorionated and anaesthetized with 2% tricaine methane-sulfonate (A5040-25G, Sigma-Aldrich). Images were acquired on an Axio Zoom.V16 microscope (ZEISS).
As a first test of HD5 (1-9) (SEQ ID No. 1) toxicity in vivo, as well as to elucidate potential effects of the peptide on embryonic development, experiments with zebrafish embryos were performed (He et al., 2014). Embryos were treated with HD5 (1-9) (SEQ ID No. 1) at concentrations of 25 μM, 75 μM, 125 μM and 250 μM starting at 6-7 h post fertilization (hpf), which is the time point recommended by pharmaceutical company-utilized assays to assess toxic effects of compounds on early embryonic development (Ball et al., 2014). Phenotypes were analyzed at 13.24 and 48 hpf (data not shown). […] Impaired development at 250 μM peptide exposure was also evident over the whole observation period, leading to the death of 11 embryos and 4 embryos having severe developmental delays by 48 hpf.

HCMV TB40/E-ΔUL16-eGFP = assay: Infection assay on different cell types (HFF, ARPE-19, THP-1) with TB40E-ΔUL16-EGFP, IE+/DAPI+; assay type: cell-based, Human Cytomegalovirus; conditions: 40 h
Procedure: For the infection assays, the cells were sown in 96-well plates. Human foreskin fibroblasts (HFF) and ARPE-19 cells (Adult Retinal Pigment Epithelial cell line-19) were seeded with 10 000 cells in 200 μl medium per well, macrophages with 20 000 cells in 200 μl medium per well and THP with 50 000 cells in 200 μl per well. The cells were incubated overnight at 37° C. and 5% CO2 and treated the following day. A medium change to P/S-free medium was performed to avoid interaction between the antibiotics used and the peptide sequences. Afterwards the corresponding peptides were added in different concentrations and immediately afterwards the virus, the final volume was 100 μl per well. The virus of the strain TB40/E-ΔUL16-eGFP was used. TB40-ΔUL16-eGFP is a derivative of the strain TB40, in which the majority of the open reading frame UL16 has been replaced by the open reading frame of eGFP, essentially as described in detail for a homologous mutant of strain AD169 (Tischer et al., “Two-step red-mediated recombination for versatile high-efficiency markerless DNA manipulation in Escherichia coli”, Biotechniques, (2006), 40(2):191-7). […] The required volume of the virus stock was calculated using the titer according to the following formula: […]

## C[C@H](N)C(=O)N[C@H](C(=O)N[C@@H](CS)C(=O)N[C@@H](Cc1ccc(O)cc1)C(=O)N[C@@H](CS)C(=O)N[C@@H](CCCNC(=N)N)C(=O)N[C@H](C(=O)NCC(=O)N[C@@H](CCCNC(=N)N)C(=O)O)[C@@H](C)O)[C@@H](C)O [HD5 (1-9), ATCYCRTGR] (H-ATCYCRTGR-OH; N-terminus and C-terminus assumed)
Zebrafish embryos; 25 μM or 75 μM
  embryonic development: developed normally
Zebrafish embryos; 125 μM
  embryonic development: approximately half of the embryos having no alterations
Zebrafish embryos; 250 μM
  death of embryos by 48 hpf: 11 embryos
  embryo death by 13 hpf: half of the embryos had died
  embryos having severe developmental delays by 48 hpf: 4 embryos
HCMV TB40/E-ΔUL16-eGFP
  concentration from which HCMV infection is inhibited: ≥ 50 µM
